“And” between values parts separate entries of the source, which are not always exact repeats. Identical values can stand only once.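 Exposure lasted 48 hours, with cells grown in 96-well plates and compounds tested at five concentrations. The concentration for 50% growth inhibition is given as GI50. TGI marks complete inhibition of growth.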
Experiments:
Assay in all cases: NCI tumour cell line growth inhibition, 48 h
RXF 393 renal = tested on: RXF 393 renal
HCT-116 colon = tested on: HCT-116 colon
NCI-H522 lung = tested on: NCI-H522 lung
DU-145 prostate = tested on: DU-145 prostate
PC-3 prostate = tested on: PC-3 prostate
A498 renal = tested on: A498 renal
HT29 colon = tested on: HT29 colon
MDA-MB-231 breast = tested on: MDA-MB-231 breast
SF-295 CNS = tested on: SF-295 CNS
KM12 colon = tested on: KM12 colon

Row | SMILES | GI50 (RXF 393 renal) | TGI (RXF 393 renal) | GI50 (HCT-116 colon) | TGI (HCT-116 colon) | TGI (NCI-H522 lung) | GI50 (DU-145 prostate) | TGI (DU-145 prostate) | GI50 (PC-3 prostate) | TGI (PC-3 prostate) | GI50 (A498 renal) | TGI (A498 renal) | GI50 (HT29 colon) | TGI (HT29 colon) | GI50 (MDA-MB-231 breast) | TGI (MDA-MB-231 breast) | GI50 (SF-295 CNS) | TGI (SF-295 CNS) | GI50 (KM12 colon) | TGI (KM12 colon) | GI50 (NCI-H522 lung)
1 | Cc1[nH]c(/C=C2\C(=O)Nc3ccccc32)c(C)c1CCC(=O)O | 19.2 µM | 63.3 µM and 90.5 µM | 25.9 µM | > 100 µM | > 100 µM | 35.4 µM | > 100 µM | 31.4 µM | > 100 µM | 21.4 µM | 61.7 µM and > 100 µM | 27 µM | > 80.8 µM | 20.7 µM | > 73.7 µM and 75.9 µM | 24.9 µM | > 100 µM | 7.79 µM | 51.2 µM and > 100 µM | 
2 | COc1cc(C(=O)N2CCN(c3ncccn3)CC2)c(N)cc1OCc1ccccc1 | > 100 µM | > 100 µM | > 100 µM | > 100 µM | > 100 µM | 37.2 µM | > 100 µM | > 100 µM | > 100 µM | 54.2 µM | > 100 µM | > 100 µM | > 100 µM | > 100 µM | > 100 µM | > 100 µM | > 100 µM | > 100 µM | > 100 µM | > 100 µM
3 | CCOc1ccncc1[N+](=O)[O-] |  | > 100 µM |  | > 100 µM | > 100 µM |  | > 100 µM |  | > 100 µM |  | > 100 µM |  | > 100 µM |  | > 100 µM |  | > 100 µM |  | > 100 µM | 
4 | NC(=O)OCCn1cc(-c2nc(-c3c[nH]c4ncccc34)cs2)c2ccccc21 | 1.78 µM | 5.56 µM | 1.72 µM | 5.02 µM | 4.42 µM | 3.07 µM | 26.1 µM | 1.87 µM | 14.6 µM | 0.905 µM | 2.87 µM | 1.77 µM | 8.55 µM | 1.1 µM | 4.38 µM | 2.29 µM | 7.7 µM | 1.44 µM | 9.45 µM | 1.49 µM
5 | CCn1sc2ccccc2c1=O |  | 11.7 µM |  | 30.7 µM | 5.32 µM |  | 49.6 µM |  | 29.3 µM |  | > 60 µM |  | 34 µM |  | 27.2 µM |  | > 55.1 µM |  | 18.8 µM | 
6 | COc1cc(OC)c(/C=C/c2c3ccccc3cc[n+]2C)c(OC)c1 | 4.99 µM | > 51.3 µM | 1.4 µM | 13.5 µM | 6.49 µM | 2.96 µM | 48.8 µM | 0.943 µM | > 37.9 µM | 1 µM | 7.26 µM | 1.64 µM | 10.3 µM | 3.46 µM | 31.4 µM | 2.17 µM | > 53.4 µM | 0.673 µM | 6.85 µM | 1.52 µM
7 | O=C1NC(=O)C(c2cccc([N+](=O)[O-])c2)=C1Nc1cc(Cl)c(O)c(Cl)c1 | > 21.7 µM | > 25 µM | > 25 µM | > 25 µM | > 25 µM | > 25 µM | > 25 µM | > 25 µM | > 25 µM | > 11.5 µM | > 25 µM | > 25 µM | > 25 µM | > 25 µM | > 25 µM | > 16.3 µM | > 25 µM | > 25 µM | > 25 µM | > 16.5 µM
8 | CC(=O)Oc1ccccc1C(=O)Nc1ncc([N+](=O)[O-])s1 | 2.06 µM | 13.1 µM and 29.7 µM | 2.26 µM | 9.55 µM and > 61.2 µM | 6.2 µM and 21.7 µM | 4.51 µM | > 100 µM | 1.66 µM | 6.42 µM and > 51.6 µM | 0.245 µM |  | 3.37 µM | 13.5 µM and 97.5 µM | 1.95 µM |  | 1.91 µM |  | 3 µM |  | 1.63 µM
9 | NC(=O)c1cc(S(=O)(=O)Nc2nnc(-c3ccccc3)c(-c3ccccc3)n2)c(SCc2ccccc2)cc1Cl | 75.3 µM | > 100 µM | > 100 µM | > 100 µM | > 68.3 µM | > 100 µM | > 100 µM | > 62.2 µM | > 100 µM | > 88.6 µM | > 100 µM |  | > 100 µM | > 85.4 µM | > 100 µM | > 57.7 µM | > 100 µM | > 62.6 µM | > 100 µM | > 44 µM
10 | O=C(O)c1ccc(OCc2ccccc2)c(Cl)c1 |  | > 100 µM |  | > 100 µM | > 100 µM |  | > 100 µM |  | > 100 µM |  | > 100 µM |  | > 100 µM |  | > 100 µM |  | > 100 µM |  | > 100 µM | 
11 | COc1ccc(-c2ccc(-c3ccc(C(=N)N)s3)s2)cc1 | 1.26 µM | 3.05 µM | 0.179 µM | 0.342 µM | 1.2 µM | 0.193 µM | 0.357 µM | 0.167 µM | 0.318 µM | 1.1 µM | 2.41 µM | 0.181 µM | 0.375 µM | 0.186 µM | 0.371 µM | 0.188 µM | 0.395 µM | 0.19 µM | 0.357 µM | 0.264 µM
12 | COCC1(CO)C(=O)C2CCN1CC2 (centres undefined) | 15.7 µM | 30.2 µM | 14.3 µM | 27.9 µM | 11.7 µM | 17.7 µM | 32.3 µM | 36 µM | > 58.4 µM | 23 µM | 63.9 µM | 28.1 µM | > 63.9 µM | 17.2 µM | 32 µM | > 100 µM | > 100 µM | > 100 µM | > 100 µM | 4.28 µM
13 | Cc1nc2sc3c(c2c(=O)[nH]1)CCCC3 |  | > 100 µM |  | > 100 µM | > 100 µM |  | > 100 µM |  | > 100 µM |  | > 100 µM |  | > 100 µM |  | > 100 µM |  | > 100 µM |  | > 100 µM | 
14 | CN(CCO)c1ccc(N2Cc3ccccc3OC3=C2C(=O)c2c(O)ccc(O)c2C3=O)cn1 | 0.0954 µM | 0.27 µM | 0.0467 µM | 0.223 µM | 0.116 µM | 0.174 µM | 0.323 µM | 0.296 µM | 0.888 µM | 2.17 µM | 5.66 µM | 0.172 µM | 0.468 µM | 0.221 µM | 0.679 µM | 1.41 µM | 3.52 µM | 0.387 µM | 1.63 µM | 0.0323 µM
15 | Cc1nc(-[n+]2nc(-c3ccncc3)nn2-c2ccccc2)sc1C |  | 45.9 µM |  | > 100 µM | 76.5 µM |  | > 100 µM |  | > 100 µM |  | > 100 µM |  | > 100 µM |  | > 100 µM |  | > 100 µM |  | > 100 µM | 

Source: PubChem BioAssay (NCI)
